Laboratory results: patent publication US10842793B2, “Inhibitors of the unconventional secretion of fibroblast growth factor 2 (FGF2) by tumor cells and uses thereof” (Universität Heidelberg, priority 2016, dated 2020)
“Also recorded” adds a separate entry of the source.

Assays:
[1] = molecular target: T1, GST-NΔ173 Tec (auto-phosphorylation) (Homo sapiens, UniProt P42680); assay: In vitro Tec kinase auto-phosphorylation; type: biochemical; conditions: 50 μM compound; for effect on NΔ173 Tec auto-phosphorylation in the presence of STAP1: STAP1 present; for inhibition of Tec auto-phosphorylation in the absence of a substrate: no FGF2, FIGS. 7B and 7E
T1 construct: made in house; host or cells: SF9 insect cells (baculovirus)
Procedure: FGF2 tyrosine phosphorylation and Tec kinase auto-phosphorylation were reconstituted with purified components based on a Western analysis using anti-phosphotyrosine antibodies directed against an FGF2-derived phosphopeptide. In vitro phosphorylation experiments were conducted in the absence (1% DMSO mock control) and presence of the small molecule inhibitors (#6, #14, #21; 50 μM in 1% DMSO) and control compounds (#18, #19; 50 μM in 1% DMSO) introduced in FIGS. 4 and 5. Fluorescent secondary antibodies were used to detect antigens employing the LI-COR Odyssey imaging platform. M=PageRuler Prestained Protein Ladder. For details, see Experimental Procedures.
FGF2 and STAP1 tyrosine phosphorylation as well as Tec kinase auto-phosphorylation were analyzed as described in the legend to FIG. 6 and in Experimental Procedures. In vitro phosphorylation experiments were conducted in the absence (1% DMSO mock control) and presence of the small molecule inhibitors (#6, #14, #21; 50 μM in 1% DMSO) and control compounds (#18, #19; 50 μM in 1% DMSO) introduced in FIGS. 4 and 5. A Western analysis was conducted using anti-phosphotyrosine antibodies (anti-pY-FGF2 for FGF2 and Tec as well as anti-pY-4G10 for STAP1). M=PageRuler Prestained Protein Ladder: 140, 115, 80, 65, 50, 40, 30, 25, 15, 10 kDa. Fluorescent secondary antibodies were used to detect and quantify antigens using the LI-COR Odyssey imaging platform. In panels D, E and F, following normalization based upon background signals detected in the absence of Tec kinase or ATP, the average of the signals detected under mock conditions was defined as 100% activity. Standard deviations are shown. A one-tailed and unpaired T-test was conducted to assess statistical significance (* p<0.05, ** p<0.01, *** p<0.001, **** p<0.0001). “NS” indicates absence of significant differences.
A Tec kinase in vitro phosphorylation assay was established to test the inhibitory potential and selectivity of the small molecule inhibitors reported in this study (FIGS. 6 and 7). Tyrosine phosphorylation of FGF2 and STAP1, another established substrate of Tec kinase, was tested in a final volume of 100 μl (60 mM Hepes pH 7.5, 3 mM MgCl2, 20 μM ATP, 3 μM Sodium orthovanadate, 1.2 mM DTT, 50 ng/μl PEG 20000, 0.05% w/v Tween 20, 0.001% BSA). GST-NΔ173Tec (60 nM) was incubated in the absence (1% DMSO mock control) or presence of each compound (50 μM in 1% DMSO). Where indicated, reactions contained 250 nM of either FGF2 or 250 nM STAP1 (Hölzel Diagnostika, # GWB-P0486E-100). Following incubation at 30° C. for 45 minutes (corresponding to the midpoint of linear product formation), the reaction was terminated using SDS sample buffer and boiling for 4 minutes at 95° C. […] Phosphorylation levels of GST-NΔ173 Tec (auto-phosphorylation), FGF2 and STAP1 were quantified by a Western analysis using polyclonal anti-phosphotyrosine antibodies raised against a FGF2-derived synthetic peptide containing a phosphorylated tyrosine residue (ANRpYLAMKED; SEQ ID NO: 1). […] Phosphorylation levels of STAP1 were monitored using a monoclonal anti-phosphotyrosine antibody (clone 4G10®, #05-321, Merck Millipore). Appropriate fluorescent secondary antibodies (goat anti-rabbit IgG conjugated with Alexa Fluor® 680, # A-21076, Life Technologies; goat anti-mouse IgG conjugated with Alexa Fluor® 680, # A-21057, Life Technologies) were used to quantify all antigens employing the LI-COR Odyssey infrared imaging platform. […]

[2] = Observation of compound aggregates in cell culture media; type: physicochemical; conditions: 25 and 50 μM

T1 sequence (P42680 174-631, stated change not applied): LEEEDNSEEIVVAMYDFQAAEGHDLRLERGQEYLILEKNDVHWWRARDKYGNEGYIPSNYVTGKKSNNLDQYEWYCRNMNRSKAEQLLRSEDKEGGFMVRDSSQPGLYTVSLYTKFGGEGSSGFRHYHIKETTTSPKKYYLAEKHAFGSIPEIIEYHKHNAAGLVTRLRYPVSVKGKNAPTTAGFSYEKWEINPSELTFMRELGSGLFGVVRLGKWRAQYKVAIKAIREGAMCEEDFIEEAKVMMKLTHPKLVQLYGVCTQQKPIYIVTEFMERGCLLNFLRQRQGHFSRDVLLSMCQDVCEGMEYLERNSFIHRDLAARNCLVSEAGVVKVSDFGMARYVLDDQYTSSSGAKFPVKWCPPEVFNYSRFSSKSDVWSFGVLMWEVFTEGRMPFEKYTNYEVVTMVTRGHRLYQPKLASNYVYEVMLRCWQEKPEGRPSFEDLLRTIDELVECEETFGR

COC(=O)c1c(C)[nH]c(C(=O)OCc2cc(=O)n3c(C)cccc3n2)c1C [compound #6]
effect on NΔ173 Tec auto-phosphorylation in the presence of STAP1 [1]: neither auto-phosphorylation of NΔ173 Tec nor tyrosine phosphorylation of STAP1 is affected | inhibition of Tec auto-phosphorylation in the absence of a substrate [1]: particularly evident

CC(=O)c1c(C)[nH]c(C(=O)OCc2cc(=O)n3cc(Br)ccc3n2)c1C [compound #14]
effect on NΔ173 Tec auto-phosphorylation in the presence of STAP1 [1]: neither auto-phosphorylation of NΔ173 Tec nor tyrosine phosphorylation of STAP1 is affected

CC(=O)c1c(C)[nH]c(C(=O)CSc2nc3cc(Cl)cnc3[nH]2)c1C [compound #21]
effect on NΔ173 Tec auto-phosphorylation in the presence of STAP1 [1]: neither auto-phosphorylation of NΔ173 Tec nor tyrosine phosphorylation of STAP1 is affected | inhibition of Tec auto-phosphorylation in the absence of a substrate [1]: particularly evident | solubility / aggregates of compound [2]: aggregates of compound #21 were increasingly observable at concentrations of 25 and 50 μM; also recorded: solubility issues
